Literature values, collected in US9949941B2, “GABA analog prodrug sustained release oral dosage forms” (XENOPORT, INC., priority 2004, dated 2018).

Assays:
[1] = dosed either orally or directly into the colon of a mammal

| SMILES | bioavailability as gabapentin [1] | Tmax following administration of gabapentin alone (fasted and fed patients) [h] | typical Tmax of immediate release gabapentin (immediate release gabapentin) [h] |
| --- | --- | --- | --- |
| CC(OC(=O)NCC1(CC(=O)O)CCCCC1)OC(=O)C(C)C (stereo not drawn) [Compound (1), 1-{[(α-isobutanoyloxyethoxy)carbonyl]aminomethyl}-1-cyclohexane acetic acid] | high bioavailability | – | – |
| NCC1(CC(=O)O)CCCCC1 [gabapentin] | – | 2 to 4 | 2 to 4 |
